Measurements as given in BindingDB's records for doi:10.7270/Q2NZ862K (Nmmlsc, 2007).

Target: T1, fMet-Leu-Phe receptor (Homo sapiens, UniProt P21462)
T1 sequence (P21462 whole entry): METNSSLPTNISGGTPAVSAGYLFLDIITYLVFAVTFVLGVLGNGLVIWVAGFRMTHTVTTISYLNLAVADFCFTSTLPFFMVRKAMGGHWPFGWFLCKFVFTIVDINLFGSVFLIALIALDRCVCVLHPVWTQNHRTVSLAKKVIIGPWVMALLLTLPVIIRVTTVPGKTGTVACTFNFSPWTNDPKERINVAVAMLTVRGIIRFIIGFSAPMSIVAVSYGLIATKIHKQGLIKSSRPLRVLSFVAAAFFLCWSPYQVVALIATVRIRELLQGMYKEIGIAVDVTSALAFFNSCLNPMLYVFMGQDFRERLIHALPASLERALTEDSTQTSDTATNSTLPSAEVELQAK
Test: formyl peptide receptor binders – dose response (AID 519)

SMILES	Ki [µM]
Cc1ccc(C(=O)C2C(=O)C(=O)N(Cc3ccccc3)C2c2cccnc2)o1 (stereo not drawn) [1-benzyl-3-hydroxy-4-[(5-methylfuran-2-yl)carbonyl]-5-(pyridin-3-yl)-2,5-dihydro-1H-pyrrol-2-one]	> 43.7
COc1cccc(C2C(C(=O)c3ccc(OC)c(OC)c3)C(=O)C(=O)N2c2cc(C)on2)c1 (stereo not drawn) [(4E)-4-[(3,4-dimethoxyphenyl)-hydroxy-methylene]-5-(3-methoxyphenyl)-1-(5-methylisoxazol-3-yl)pyrrolidine-2,3-quinone]	> 43.7
CCOc1cccc(C(=O)C2C(=O)C(=O)N(Cc3cccnc3)C2c2ccco2)c1 (stereo not drawn) [(4Z)-4-[(3-ethoxyphenyl)-hydroxymethylidene]-5-(2-furanyl)-1-(3-pyridinylmethyl)pyrrolidine-2,3-dione]	> 43.7
Cc1ccc(C(=O)C2C(=O)C(=O)N(c3cc(C)on3)C2c2cccc(Br)c2)cc1 (stereo not drawn) [(4E)-5-(3-bromophenyl)-1-(5-methyl-1,2-oxazol-3-yl)-4-[(4-methylphenyl)-oxidanyl-methylidene]pyrrolidine-2,3-dione]	> 43.7
C=CCN1C(=O)C2(c3ccccc31)C(C(=O)c1ccc3c(c1)OCCO3)C(=O)C(=O)N2CCCOC (stereo not drawn) [(4'E)-1-allyl-4'-[2,3-dihydro-1,4-benzodioxin-6-yl(hydroxy)methylene]-1'-(3-methoxypropyl)spiro[indoline-3,5'-pyrrolidine]-2,2',3'-trione]	> 43.7
C=C(c1ccc(Br)cc1)c1sc(N2CCCC2)nc1O [(5Z)-5-[1-(4-bromophenyl)ethylidene]-2-(1-pyrrolidinyl)-4-thiazolone]	> 43.7
COc1cccc(C2C(C(=O)c3cc4ccccc4o3)C(=O)C(=O)N2c2cc(C)on2)c1OC (stereo not drawn) [3-(1-benzofuran-2-carbonyl)-2-(2,3-dimethoxyphenyl)-4-hydroxy-1-(5-methyl-1,2-oxazol-3-yl)-2H-pyrrol-5-one]	> 43.7
CCOc1cccc(C(=O)C2C(=O)C(=O)N(Cc3ccco3)C2c2ccncc2)c1 (stereo not drawn) [(4Z)-1-(2-furfuryl)-4-[hydroxy(m-phenetyl)methylene]-5-(4-pyridyl)pyrrolidine-2,3-quinone]	> 43.7
COc1ccc(C(=O)C2C(=O)C(=O)N(Cc3ccco3)C2c2ccc(OC)cc2OC)cc1 (stereo not drawn) [(4E)-5-(2,4-dimethoxyphenyl)-1-(2-furanylmethyl)-4-[hydroxy-(4-methoxyphenyl)methylidene]pyrrolidine-2,3-dione]	> 43.7
COc1cccc(OC)c1C(=O)C(C#N)c1nc2ccccc2[nH]1 (stereo not drawn) [SMR000024183]	> 43.7
COc1ccc(C(=O)C2C(=O)C(=O)N(c3nc(C)c(C)s3)C2c2ccco2)cc1 (stereo not drawn) [(4Z)-1-(4,5-dimethyl-1,3-thiazol-2-yl)-5-(furan-2-yl)-4-[(4-methoxyphenyl)-oxidanyl-methylidene]pyrrolidine-2,3-dione]	> 43.7
COc1cc(C2C(C(=O)c3ccco3)C(=O)C(=O)N2CCc2ccccc2)ccc1O (stereo not drawn) [3-(furan-2-carbonyl)-4-hydroxy-2-(4-hydroxy-3-methoxyphenyl)-1-(2-phenylethyl)-2H-pyrrol-5-one]	> 43.7
CSCCC1c2c(-c3cccs3)n[nH]c2OC(=N)C1C#N (stereo not drawn) [6-azanyl-4-(2-methylsulfanylethyl)-3-thiophen-2-yl-2,4-dihydropyrano[2,3-c]pyrazole-5-carbonitrile]	> 43.7
CC1=C(C(=O)OC(C)C)[C@]2(C(=O)N(CC(N)=O)c3ccccc32)C(C#N)C(=N)O1 (stereo partly drawn) [(3R)-6'-amino-1-(2-amino-2-keto-ethyl)-5'-cyano-2-keto-2'-methyl-spiro[indoline-3,4'-pyran]-3'-carboxylic acid isopropyl ester]	> 43.7
CCCOc1ccc(C2C(C(=O)c3ccco3)C(=O)C(=O)N2CCCn2ccnc2)cc1 (stereo not drawn) [3-(furan-2-carbonyl)-4-hydroxy-1-(3-imidazol-1-ylpropyl)-2-(4-propoxyphenyl)-2H-pyrrol-5-one]	> 43.7
C=CCOc1cccc(C2C(C(=O)c3ccco3)C(=O)C(=O)N2CCN2CCOCC2)c1 (stereo not drawn) [3-(furan-2-carbonyl)-4-hydroxy-1-(2-morpholin-4-ylethyl)-2-(3-prop-2-enoxyphenyl)-2H-pyrrol-5-one]	> 43.7
COCCCN1C(=O)C(=O)C(C(=O)c2ccc(OC)cc2C)C1c1cccnc1 (stereo not drawn) [(4E)-4-[(4-methoxy-2-methyl-phenyl)-oxidanyl-methylidene]-1-(3-methoxypropyl)-5-pyridin-3-yl-pyrrolidine-2,3-dione]	> 43.7
Cc1nc(C)c(C(=O)C2C(=O)C(=O)N(CCCn3ccnc3)C2c2ccc(Cl)cc2)s1 (stereo not drawn) [2-(4-chlorophenyl)-3-(2,4-dimethyl-1,3-thiazole-5-carbonyl)-4-hydroxy-1-(3-imidazol-1-ylpropyl)-2H-pyrrol-5-one]	> 43.7

Results, then the molecule that gave them:

Ki [µM]	SMILES
> 43.7	COC(=O)Cc1n[nH]c2c1C(C1C=CCCC1)C(C#N)C(=N)O2 (stereo not drawn) [2-[6-amino-5-cyano-4-(1-cyclohex-2-enyl)-2,4-dihydropyrano[2,3-c]pyrazol-3-yl]acetic acid methyl ester]
> 43.7	O=C1C(=O)N(CCc2ccccc2)C(c2cccnc2)C1C(=O)c1ccco1 (stereo not drawn) [3-(furan-2-carbonyl)-4-hydroxy-1-(2-phenylethyl)-2-pyridin-3-yl-2H-pyrrol-5-one]
8.9	O=C1C(=O)N(Cc2ccccc2)C(c2ccncc2)C1C(=O)c1ccco1 (stereo not drawn) [1-Benzyl-4-(furan-2-carbonyl)-3-hydroxy-5-pyridin-4-yl-1,5-dihydro-pyrrol-2-one]
37.8	CCOc1ccc(C(=O)C2C(=O)C(=O)N(c3nc(C)c(C)s3)C2c2ccco2)cc1 (stereo not drawn) [(4Z)-1-(4,5-dimethyl-1,3-thiazol-2-yl)-4-[(4-ethoxyphenyl)-hydroxymethylidene]-5-(furan-2-yl)pyrrolidine-2,3-dione]
17.7	COc1cc(C2C(C(=O)c3cccs3)C(=O)C(=O)N2Cc2ccco2)cc(OC)c1OC (stereo not drawn) [1-(2-furanylmethyl)-4-hydroxy-3-[oxo(thiophen-2-yl)methyl]-2-(3,4,5-trimethoxyphenyl)-2H-pyrrol-5-one]
3.3	COC(=O)c1[nH]c(C)c(C(=O)C2C(=O)C(=O)N(CCN3CCOCC3)C2c2cccs2)c1C (stereo not drawn)
7.6	Cc1ccc(C2C(C(=O)c3ccc(Cl)cc3)C(=O)C(=O)N2CC2CCCO2)o1 (stereo not drawn) [(4Z)-4-[(4-chlorophenyl)-hydroxy-methylene]-5-(5-methyl-2-furyl)-1-(tetrahydrofurfuryl)pyrrolidine-2,3-quinone]
31.2	COc1cc(C2C(C(=O)c3ccco3)C(=O)C(=O)N2c2cc(C)on2)cc(Br)c1O (stereo not drawn) [2-(3-bromanyl-5-methoxy-4-oxidanyl-phenyl)-3-(furan-2-ylcarbonyl)-1-(5-methyl-1,2-oxazol-3-yl)-4-oxidanyl-2H-pyrrol-5-one]
37.6	COc1cc(C2C(C(=O)c3ccc4c(c3)CC(C)O4)C(=O)C(=O)N2CCCn2ccnc2)ccc1O (stereo not drawn) [(4E)-1-(3-imidazol-1-ylpropyl)-5-(3-methoxy-4-oxidanyl-phenyl)-4-[(2-methyl-2,3-dihydro-1-benzofuran-5-yl)-oxidanyl-methylidene]pyrrolidine-2,3-dione]
19.9	CCOc1cc(C2C(C(=O)c3ccc(C)o3)C(=O)C(=O)N2CCc2ccccc2)ccc1O (stereo not drawn) [2-(3-ethoxy-4-hydroxyphenyl)-4-hydroxy-3-(5-methylfuran-2-carbonyl)-1-(2-phenylethyl)-2H-pyrrol-5-one]
23	O=C1C(=O)N(Cc2ccco2)C(c2ccccc2)C1C(=O)c1cccs1 (stereo not drawn) [1-(2-furanylmethyl)-4-hydroxy-3-[oxo(thiophen-2-yl)methyl]-2-phenyl-2H-pyrrol-5-one]
12.9	COc1cc(C2C(C(=O)c3ccc(C)o3)C(=O)C(=O)N2CCc2ccccc2)ccc1O (stereo not drawn) [2-(3-methoxy-4-oxidanyl-phenyl)-3-(5-methylfuran-2-yl)carbonyl-4-oxidanyl-1-(2-phenylethyl)-2H-pyrrol-5-one]
20.4	COCCCN1C(=O)C(=O)C(C(=O)c2ccco2)C1c1cccc(Br)c1 (stereo not drawn) [2-(3-bromophenyl)-3-(furan-2-carbonyl)-4-hydroxy-1-(3-methoxypropyl)-2H-pyrrol-5-one]
17.3	COc1ccc(OC)c(C2C(C(=O)c3ccco3)C(=O)C(=O)N2CCCN2CCOCC2)c1 (stereo not drawn) [2-(2,5-dimethoxyphenyl)-3-(furan-2-carbonyl)-4-hydroxy-1-(3-morpholin-4-ylpropyl)-2H-pyrrol-5-one]
37.4	CCOc1ccc(C2C(C(=O)c3cccs3)C(=O)C(=O)N2CCCn2ccnc2)cc1 (stereo not drawn) [2-(4-ethoxyphenyl)-1-(3-imidazol-1-ylpropyl)-4-oxidanyl-3-thiophen-2-ylcarbonyl-2H-pyrrol-5-one]
10	CCOc1ccc(C2C(C(=O)c3ccco3)C(=O)C(=O)N2Cc2cccnc2)cc1 (stereo not drawn) [2-(4-ethoxyphenyl)-3-(furan-2-carbonyl)-4-hydroxy-1-(pyridin-3-ylmethyl)-2H-pyrrol-5-one]
2.2	COc1ccc(OC)c(C2C(C(=O)c3ccccc3)C(=O)C(=O)N2Cc2ccco2)c1 (stereo not drawn) [(4Z)-5-(2,5-dimethoxyphenyl)-1-(2-furanylmethyl)-4-[hydroxy(phenyl)methylidene]pyrrolidine-2,3-dione]
8.2	Cc1ccsc1C1C2C(=O)CC(C)(C)CC2=Nc2ncnn21 (stereo not drawn) [6,6-dimethyl-9-(3-methyl-2-thienyl)-1,5,7,9-tetrahydro-[1,2,4]triazolo[5,1-b]quinazolin-8-one]
14	O=C1C(=O)N(CCOCCO)C(c2cccs2)C1C(=O)c1cccs1 (stereo not drawn) [1-[2-(2-hydroxyethyloxy)ethyl]-4-oxidanyl-2-thiophen-2-yl-3-thiophen-2-ylcarbonyl-2H-pyrrol-5-one]
31.4	Cc1ccc(C2c3c([nH]c(=S)[nH]c3=O)N=C3CC(C)(C)CC(=O)C32)cc1 (stereo not drawn) [8,8-dimethyl-5-(4-methylphenyl)-2-sulfanylidene-5,7,9,10-tetrahydro-1H-pyrimido[4,5-b]quinoline-4,6-dione]
